*1 amine or outer side, *2 acyl side, *3 side chain or, on linkers, in order; H or OH if unused. Where a SMILES comes first, the peptide text is derived from it. Bridges are numbered along the chain shown (N, C = ends). [ ]: non-standard residue; d: D form. The star is where a group is joined. hPhe(3,5-F2-4-CF3) = N[C@@H](CCc1cc(F)c(C(F)(F)F)c(F)c1)C(=O)O; hPhe(3-Cl-4-CF3) = N[C@@H](CCc1ccc(C(F)(F)F)c(Cl)c1)C(=O)O; X42 = COCCCN([C@@H](Cc1ccc(C(F)(F)F)cc1)C(=O)[*:2])[*:1]; NPrPhe(4-CF3) = CCCN[C@@H](Cc1ccc(C(F)(F)F)cc1)C(=O)O; NMeGly(cPent) = CN[C@H](C(=O)O)C1CCCC1; Ac4c(3,3-F2) = NC1(C(=O)O)CC(F)(F)C1; NMeD = CN[C@@H](CC(=O)O)C(=O)O; NMeL = CN[C@@H](CC(C)C)C(=O)O; Pip = O=C(O)[C@@H]1CCCCN1; Ac6c = NC1(C(=O)O)CCCCC1; Morpholide = C1CN(*)CCO1; NMeA = CN[C@@H](C)C(=O)O; Ac5c = NC1(C(=O)O)CCCC1; Aze = O=C(O)[C@@H]1CCN1; Sar = CNCC(=O)O
Legend:
[1] = molecular target: GDP-bound NRAS wild-type protein (Homo sapiens, UniProt P01111); test: Binding to NRAS by surface plasmon resonance (SPR), Single Cycle Kinetics
[2] = molecular target: GDP-bound HRAS wild-type protein (Homo sapiens, UniProt P01112); test: Binding to HRAS by surface plasmon resonance (SPR), Single Cycle Kinetics
[3] = KD ratio, GDP-bound NRAS wild-type vs GDP-bound KRAS wild-type, SPR
[4] = KD ratio, GDP-bound HRAS wild-type vs GDP-bound KRAS wild-type, SPR

Sequence of GDP-bound NRAS wild-type protein (P01111 whole entry): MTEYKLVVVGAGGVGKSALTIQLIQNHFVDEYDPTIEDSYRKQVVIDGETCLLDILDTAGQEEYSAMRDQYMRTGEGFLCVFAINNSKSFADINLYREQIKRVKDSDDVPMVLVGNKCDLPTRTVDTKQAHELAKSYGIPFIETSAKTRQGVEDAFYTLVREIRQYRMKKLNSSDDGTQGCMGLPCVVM
Sequence of GDP-bound HRAS wild-type protein (P01112 whole entry): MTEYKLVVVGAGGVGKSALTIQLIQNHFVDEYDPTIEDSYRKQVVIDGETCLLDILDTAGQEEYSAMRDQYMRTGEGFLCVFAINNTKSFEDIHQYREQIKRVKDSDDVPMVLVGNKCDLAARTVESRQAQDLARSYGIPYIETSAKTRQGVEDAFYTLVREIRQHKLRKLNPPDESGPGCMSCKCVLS

## CCO[C@@H]1C[C@H]2C(=O)NC3(CCC3)C(=O)N(C)[C@@H](C3CCCC3)C(=O)N(C)[C@H](C(=O)N3CCOCC3)CC(=O)N(C)[C@@H](CCOC)C(=O)N[C@@H]([C@@H](C)CC)C(=O)N(C)CC(=O)N(C)[C@H]3CCCCN(C3=O)[C@@H](Cc3ccc(C(F)(F)F)cc3)C(=O)N(C)CC(=O)N[C@@H](CCc3cc(F)c(C(F)(F)F)c(F)c3)C(=O)N2C1 [PP0720]
[1]; SPR
  NRAS/KRAS (ratio of KD value with respect to GDP-bound NRAS wild-type protein to KD value with respect to KRAS): C (A compound having a KD ratio of 0.1 or more and less than 3 is denoted as C)
[2]; SPR
  HRAS/KRAS (ratio of KD value with respect to GDP-bound HRAS wild-type protein to KD value with respect to KRAS): B (a compound having 3 or more and less than 10 is denoted as B)

## CCC(CC)[C@H]1C(=O)N(C)[C@H](C(=O)N(C)C)CC(=O)N(C)[C@@H](COC)C(=O)N[C@@H]([C@@H](C)CC)C(=O)N(C2CC2)CC(=O)N(C)[C@H]2C/C=C\CCN(C2=O)[C@@H](CC2CCC(F)(F)CC2)C(=O)N(C)CC(=O)N[C@@H](CCc2cc(F)c(C(F)(F)F)c(F)c2)C(=O)N2C[C@H](OC(C)C)C[C@H]2C(=O)NC2(CC(C)(C)C2)C(=O)N1C [PP2523]
[1]; class symbols
  NRAS/KRAS (ratio of KD value with respect to GDP-bound NRAS wild-type protein to KD value with respect to KRAS): A (a compound having 10 or more and less than 20 is denoted as A)
[2]; class symbols
  HRAS/KRAS (ratio of KD value with respect to GDP-bound HRAS wild-type protein to KD value with respect to KRAS): A (a compound having 10 or more and less than 20 is denoted as A)

## CCO[C@@H]1C[C@H]2C(=O)NC3(CC(C)(C)C3)C(=O)N(C)[C@@H](C3CCCC3)C(=O)N(C)[C@H](C(=O)N(C)C)CC(=O)N(C)[C@@H](COC)C(=O)N[C@@H]([C@@H](C)CC)C(=O)N(C)CC(=O)N(C)[C@H]3C/C=C\CCN(C3=O)[C@@H](Cc3ccc(C(F)(F)F)cc3)C(=O)N(C)CC(=O)N[C@@H](CCc3ccc(C(F)(F)F)c(Cl)c3)C(=O)N2C1 [PP1753]
[1]; [3]
  NRAS/KRAS (ratio of KD value for NRAS to KD value for KRAS): A (a compound having 10 or more and less than 20 is denoted as A)
[2]; [4]
  HRAS/KRAS (ratio of KD value for HRAS to KD value for KRAS): A (a compound having 10 or more and less than 20 is denoted as A)

## CCCN1C(=O)CN(C)C(=O)CN(C)C(=O)[C@H]([C@@H](C)CC)NC(=O)[C@H](CC(C)C)N(C)C(=O)C[C@@H](C(=O)N2CCOCC2)N(C)C(=O)[C@H](C2CCCC2)N(C)C(=O)C2(CCCCC2)NC(=O)[C@@H]2CCCN2C(=O)[C@H](CCc2ccc(C(F)(F)F)c(Cl)c2)NC(=O)CN(C)C(=O)[C@@H]1Cc1ccc(C(F)(F)F)cc1 [PP0231] ([NMeL]I[Sar][Sar][NPrPhe(4-CF3)][Sar][hPhe(3-Cl-4-CF3)]P[Ac6c][NMeGly(cPent)][NMeD]-Morpholide; lactam N-11)
[1]; SPR
  NRAS/KRAS (ratio of KD for GDP-bound NRAS wild-type to KD for KRAS): B (a compound having 3 or more and less than 10 is denoted as B)
[2]; SPR
  HRAS/KRAS (ratio of KD for GDP-bound HRAS wild-type to KD for KRAS): C (A compound having a KD ratio of 0.1 or more and less than 3 is denoted as C)

## CCO[C@@H]1C[C@H]2C(=O)NC3(CCC3)C(=O)N(C)[C@@H](C3CCCC3)C(=O)N(C)[C@H](C(=O)N(C)C)CC(=O)N(C)[C@@H](CCC(=O)N(C)C)C(=O)N[C@@H]([C@@H](C)CC)C(=O)N(C)CC(=O)N(C)[C@H]3C/C=C\CCN(C3=O)[C@@H](Cc3ccc(C(F)(F)F)cc3)C(=O)N(C)CC(=O)N[C@@H](CCc3cc(F)c(C(F)(F)F)c(F)c3)C(=O)N2C1 [PP1122]
[1]; [3]
  NRAS/KRAS (ratio of KD value with respect to NRAS to KD value with respect to KRAS): A (a compound having 10 or more and less than 20 is denoted as A)
[2]; [4]
  HRAS/KRAS (ratio of KD value with respect to HRAS to KD value with respect to KRAS): B (a compound having 3 or more and less than 10 is denoted as B)

## CC[C@H](C)[C@@H]1NC(=O)[C@H](CC(C)C)N(C)C(=O)C[C@@H](C(=O)N2CCOCC2)N(C)C(=O)[C@H](C2CCCC2)N(C)C(=O)C2(CCCC2)NC(=O)[C@@H]2CCCN2C(=O)[C@H](CCc2ccc(C(F)(F)F)c(Cl)c2)NC(=O)CN(C)C(=O)[C@H](Cc2ccc(C(F)(F)F)cc2)N(CCCOC)C(=O)[C@@H]2CCN2C(=O)[C@H](C)N(C)C1=O [PP0119] ([NMeL]I[NMeA][Aze][X42][Sar][hPhe(3-Cl-4-CF3)]P[Ac5c][NMeGly(cPent)][NMeD]-Morpholide; lactam N-11)
[1]; SPR
  NRAS/KRAS (ratio of KD for GDP-bound NRAS wild-type to KD for KRAS): C (A compound having a KD ratio of 0.1 or more and less than 3 is denoted as C)
[2]; SPR
  HRAS/KRAS (ratio of KD for GDP-bound HRAS wild-type to KD for KRAS): C (A compound having a KD ratio of 0.1 or more and less than 3 is denoted as C)

## CCCN1C(=O)CN(C)C(=O)[C@@H]2CCN2C(=O)[C@H]([C@@H](C)CC)NC(=O)[C@H](CC(C)C)N(C)C(=O)C[C@@H](C(=O)N2CCOCC2)N(C)C(=O)[C@H](C2CCCC2)N(C)C(=O)C2(CCCC2)NC(=O)[C@@H]2CCCCN2C(=O)[C@H](CCc2ccc(C(F)(F)F)c(Cl)c2)NC(=O)CN(C)C(=O)[C@@H]1Cc1ccc(C(F)(F)F)cc1 [PP0311] ([NMeL]I[Aze][Sar][NPrPhe(4-CF3)][Sar][hPhe(3-Cl-4-CF3)][Pip][Ac5c][NMeGly(cPent)][NMeD]-Morpholide; lactam N-11)
[1]; SPR
  NRAS/KRAS (ratio of KD for GDP-bound NRAS wild-type to KD for KRAS): B (a compound having 3 or more and less than 10 is denoted as B)
[2]; SPR
  HRAS/KRAS (ratio of KD for GDP-bound HRAS wild-type to KD for KRAS): B (a compound having 3 or more and less than 10 is denoted as B)

## CCO[C@@H]1C[C@H]2C(=O)NC3(CC(F)(F)C3)C(=O)N(C)[C@@H](C(CC)CC)C(=O)N3CCC[C@@H]3CC(=O)N(C)[C@@H](CC3CC3)C(=O)N[C@@H]([C@@H](C)CC)C(=O)N(C)CC(=O)N(C)[C@H]3C/C=C\CCN(C3=O)[C@@H](Cc3ccc(C(F)(F)F)cc3)C(=O)N(C)CC(=O)N[C@@H](CCc3cc(F)c(C(F)(F)F)c(F)c3)C(=O)N2C1 [PP1614]
[1]; [3]
  NRAS/KRAS (ratio of KD value for NRAS to KD value for KRAS): A (a compound having 10 or more and less than 20 is denoted as A)
[2]; [4]
  HRAS/KRAS (ratio of KD value for HRAS to KD value for KRAS): A (a compound having 10 or more and less than 20 is denoted as A)

## CCCN1C(=O)[C@@H]2CCN2C(=O)CN(C)C(=O)[C@H]([C@@H](C)CC)NC(=O)[C@H](CC(C)C)N(C)C(=O)C[C@@H](C(=O)N2CCOCC2)N(C)C(=O)[C@H](C2CCCC2)N(C)C(=O)C2(CC(F)(F)C2)NC(=O)[C@@H]2CCCN2C(=O)[C@H](CCc2cc(F)c(C(F)(F)F)c(F)c2)NC(=O)CN(C)C(=O)[C@@H]1Cc1ccc(C(F)(F)F)cc1 [PP0802] ([NMeL]I[Sar][Aze][NPrPhe(4-CF3)][Sar][hPhe(3,5-F2-4-CF3)]P[Ac4c(3,3-F2)][NMeGly(cPent)][NMeD]-Morpholide; lactam N-11)
[1]; SPR
  NRAS/KRAS (ratio of KD value with respect to GDP-bound NRAS wild-type protein to KD value with respect to KRAS): C (A compound having a KD ratio of 0.1 or more and less than 3 is denoted as C)
[2]; SPR
  HRAS/KRAS (ratio of KD value with respect to GDP-bound HRAS wild-type protein to KD value with respect to KRAS): B (a compound having 3 or more and less than 10 is denoted as B)

## CCC(CC)[C@H]1C(=O)N(C)[C@H](C(=O)N(C)C)CC(=O)N(C)[C@@H](COC)C(=O)N[C@@H]([C@@H](C)CC)C(=O)N(C)CC(=O)N(C)[C@H]2C/C=C\CCN(C2=O)[C@@H](Cc2ccc(C(F)(F)F)cc2)C(=O)N(C)CC(=O)N[C@@H](CCc2ccc(Cl)c(Cl)c2)C(=O)N2C[C@H](OC(C)C)C[C@H]2C(=O)NC2(CC(C)(C)C2)C(=O)N1C [PP2533]
[1]; class symbols
  NRAS/KRAS (ratio of KD value with respect to GDP-bound NRAS wild-type protein to KD value with respect to KRAS): AA (a compound having 20 or more is denoted as AA)
[2]; class symbols
  HRAS/KRAS (ratio of KD value with respect to GDP-bound HRAS wild-type protein to KD value with respect to KRAS): A (a compound having 10 or more and less than 20 is denoted as A)

From patent publication US20250230193A1, “CYCLIC COMPOUND HAVING SELECTIVE KRAS INHIBITORY EFFECT ON HRAS AND NRAS” (CHUGAI SEIYAKU KABUSHIKI KAISHA, priority 2022, published 2025)
